Data set [1] in a line: Pharmacokinetic study, plasma and brain concentration by LC-MS/MS. The settings on record: H2122-FmC and SW1573-FmC tumor-bearing mice, oral adagrasib 75 mg/kg BID or abemaciclib 50 mg/kg QD for three days, 1 h after last dose.
The subject of data set [2] is H2122 cells. As to the kind of experiment: CyQUANT cell proliferation assay. The note with it: 120 h drug exposure. Type of data set: cell-based, human. As for the experimental part:
(§1) Human NSCLC cell lines, SW1573 and H2122 cells, were obtained from the American Type Culture Collection. Both cell lines carry a KRAS G12C mutation and CDKN2A homozygous deletion. The cell lines were authenticated by short tandem fingerprinting in 2022 and periodically tested to be Mycoplasma-free. H2122 cells were cultured in RPMI-1640 supplemented with 10% fetal bovine serum. SW1573 cells were maintained in DMEM supplemented with 5% FBS. Both cell lines were cultured at 37 °C in a 5% CO2-humidified atmosphere and passaged when they reached 80–90% confluence. Cells were transduced with a lentivirus vector carrying cDNA coding for firefly luciferase and mCherry to generate SW1573-FmC and H2122-FmC for in vivo studies.

Data set [3] deals with SW1573 cells. As to the kind of experiment: CyQUANT cell proliferation assay. It counts as cell-based. The note with it: Homo sapiens, SW1573, 120 h. As for the experimental part: as §1
For data set [4], the system named is SW1573-FmC intracranial tumors. As to the kind of experiment: Pharmacodynamic immunohistochemistry of brain tumors. It counts as in vivo, mice. The settings on record: SW1573-FmC xenograft, 3 days treatment. From the text: Formalin-fixed paraffin-embedded Sects. (7-μm thickness) were subjected to immunohistochemistry according to the methods described previously. Primary antibodies used included those directed at: p-ERK (CST), p-Rb (CST), Ki67 (Dako, MIB1) and Cleaved caspase 3 (CST, 9661). Immuno-positive cells and negative cells within tumor tissues were counted and the fraction of positive cells determined.

For data set [5], the system named is p-Rb (Ser807/811) in SW1573 cells. As to the kind of experiment: Western blot of phospho-Rb. It counts as cell-based, human. The note with it: 24 h exposure. How it is done: (§2) Cells and tissues were lysed in RIPA lysis buffer (Pierce). The protein concentration was measured using Bradford assay (BioRad). Protein lysates were separated by Mini-PROTEAN TGX gel electrophoresis (BioRad) and subsequently transferred to PVDF membranes (BioRad) for immunoblotting analysis. The membrane was blocked with 5% non-fat skim milk in Tris-buffered saline with tween. Incubation in diluted primary antibodies was conducted overnight and diluted horseradish peroxidase-conjugated secondary antibodies were subsequently applied. Immunoreactive bands were detected using ECL substrate reagent (BioRad), and the membrane was developed using a ChemiDoc XRS + system (BioRad). Primary antibodies used were against: phospho-ERK (Cell Signaling Technology (CST), 4370), ERK (CST, 9102), phospho-Rb (Ser807/811, CST, 8516), β-actin (CST, 3700), and vinculin (Millipore Sigma, 05–386).

The test system of data set [6] is p-Rb (Ser807/811) in H2122 cells. Kind of data set: Western blot of phospho-Rb. It counts as cell-based, human. The note with it: 24 h exposure. As for the experimental part:
as §2

The test system of data set [7] is phospho-ERK (p-ERK) in SW1573 cells. As to the kind of experiment: Western blot of phospho-ERK. The note with it: 48 h, 1,000 nM adagrasib and/or 1,000 nM abemaciclib. Type of data set: cell-based, human. (In general: Immunoblotting shows a protein as a band on a membrane.)
The next data set has as its system SW1573-FmC cells. As to the kind of experiment: CyQUANT cell proliferation assay, FmC-transduced cells. The settings on record: Homo sapiens, 120h drug exposure. Type of data set: cell-based. How it is done: as §1, with “studies. […]” for “studies.”
(§3) cell viability of firefly-luciferase and mCherry (FmC)-transduced NSCLC cells.
(§4) A, Image representing cell line transduction procedures, involving overnight exposure with a lentivirus vector expressing Firefly luciferase and mCherry. B, C, CellTiter-Glo and CyQUANT […]
(§5) Highest Single Agent model analysis in SW1573-FmC (D) and H2122-FmC (E) cell lines (96h […]
(§6) HSA synergy and antagonism

The test system of another data set is H2122-FmC cells. Described as above. It counts as cell-based. The note with it: Homo sapiens, 120h drug exposure. As for the experimental part:
as §1, with “studies. […]” for “studies.”
as §3, §4, §5, §6

For data set [8] the following is noted: clinically ref 23; cited from earlier work.
The test system of a further data set is human CYP3A4. The settings on record: cited from earlier work.
Data set [9] deals with H2122-FmC intracranial tumors. Kind of data set: Intracranial xenograft efficacy study (BLI, survival, body weight). Type of data set: in vivo, female nude (athymic) mice. The settings on record: H2122-FmC model. As for the experimental part:
(§7) All the animal studies were conducted in compliance with all applicable regulations and guidelines of the Institutional Animal Care and Use Committee. Six-to-eight-week-old female nude (athymic) mice were obtained from Charles River Laboratory and maintained under pathogen-free conditions, with food and water provided ad libitum. Mice were implanted intracranially with SW1573-FmC (2 × 10^5 in 2 μL serum-free media) or H2122-FmC cells (1.5 × 10^5 in 2 μL serum-free media) in the right striatum region under general anesthesia using stereotactic procedures as previously described. Animal health was monitored daily.
(§8) Animals were humanely euthanized when > 20% body weight loss or > 15% body weight loss plus neurological signs was noted. Survival data were collected for each group and analyzed using the Kaplan–Meier method. Survival duration by group was tested for statistical significance using the Gehan-Breslow-Wilcoxon test with False Discovery Rate correction. Statistical comparisons were considered significant when the adjusted P value was below 0.05 (P < 0.05).
(§9) Animals were injected intraperitoneally with luciferin (150 mg/kg, 0.01 mL/g) based on body weight and anesthetized using 1–2% isoflurane in oxygen at 1–2 L/minute. Images were acquired beginning at 7 min after luciferin injection for three time points (7, 15, and 30 min). Region of interest (ROI) analysis was completed on BLI images using AURA software (Spectral Instrument Imaging). BLI images were generated by overlaying BLI signals for each animal onto their respective white-light images for anatomic reference. Brain ROIs were generated using a fixed area circle and were placed based on the BLI signal in the relevant area, using the photographic anatomical reference images. BLI signals in images were scaled in units of radiance (photons per second per […] per steradian). Prism 9 software (Graph Pad) was used to generate relevant plots based on the in vivo quantification.
(§10) For the caspase 3/7 assay, differences in luminescence signals (from control) were determined using One-Way ANOVA. Differences in BLI radiance were tested for statistical significance using the One-Way ANOVA comparison. Statistical comparisons between two groups were considered significant when the adjusted P value was below 0.05 (P < 0.05). Kaplan–Meier analysis and log-rank test were used for the analysis of animal overall survival, comparing the groups.

The test system of data set [10] is SW1573-FmC intracranial tumors. The description is as above. Type of data set: in vivo, female nude (athymic) mice. The settings on record: SW1573-FmC model. As for the experimental part: as §7, §8, §9, §10
The next data set relates to human p-gp. The settings on record: human p-gp ref 6, 34; cited from earlier work.
Data set [11] concerns caspase 3/7 in SW1573 cells. Kind of data set: Caspase 3/7-Glo cell death assay. The settings on record: 48 h, 1,000 nM adagrasib, 1,000 nM abemaciclib, alone or combined. Type of data set: cell-based, human. As for the experimental part: as §10
Data set [12] deals with H2122 cells. As to the kind of experiment: Flow cytometry cell cycle analysis. Type of data set: cell-based, human. The note with it: 24 h drug exposure. How it is done: (§11) Cells were harvested, washed with PBS, and fixed in 2% paraformaldehyde. After the samples were prepared for analysis, fixed cells were resuspended in media and incubated with Vybrant DyeCycle Violet stain (ThermoFisher) for 30 min at 37 °C while protected from light. Flow cytometry was conducted using LSR II Cytometer (BD Biosciences) and analysis was done with FlowJo software and the Dean Jett-Fox algorithm.
(Flow cytometry measures light scatter and fluorescence of single cells or particles in a stream.)

Data set [13] relates to SW1573 cells. As to the kind of experiment: Flow cytometry cell cycle analysis. Type of data set: cell-based, human. The note with it: 24 h drug exposure. How it is done: as §11
Details of data set [14]: method as in PMID 31658955. The settings on record: cited from earlier work.
Data set [15] has as its system progressive BM with CDK pathway alterations. The settings on record: patients with progressive BM with CDK pathway alterations ref 21; cited from earlier work.

As for `CCN1CCN(Cc2ccc(Nc3ncc(F)c(-c4cc(F)c5nc(C)n(C(C)C)c5c4)n3)nc2)CC1` [abemaciclib], the Concentration in brain in [1] is 200 to 300 ng/mL. In data set [1], this compound gave a Concentration in plasma of 290 to 400 ng/mL. The IC50 in the data set with H2122 cells [2] came out at 0.626 µM; in the data set on H2122 cells [2] (Homo sapiens, NCI-H2122, 120 h), 0.6 µM; in the data set on SW1573 cells [3] (120-h drug exposure), 1 µM; in the data set with SW1573 cells [3] (120 h drug exposure), 0.833 µM; in the data set with SW1573-FmC cells, 1 µM; in the data set with H2122-FmC cells, 0.518 µM. In data set [4], the “Cleaved caspase 3 (C-Cas3) positivity in tumor (IHC)” value is listed as “very few C-Cas3 positive cells”. The “p-ERK-positive cells in tumor (IHC)” value in data set [4] is “decreased p-ERK-positive cells”. Moreover, the “p-Rb-positive cells in tumor (IHC)” value in data set [4] was “modestly decreased P-Rb immunopositivity”. In addition, the “Effect on p-Rb (Ser807 and Ser811, immunoblot)” value in [5] and in [6] was “dose-dependent inhibition of p-Rb” in each case. In [7], the “Effect on p-ERK (immunoblot, co-treatment experiment)” value is “modestly suppressed p-ERK”. Besides, the “CSF versus plasma concentrations” value in data set [8] is “comparable concentrations in the CSF and plasma”. Besides, the CYP3A4 interaction entry in the data set with human CYP3A4 is listed as “substrate of CYP3A4”. In [9] (5-week treatment, adagrasib 75 mg/kg BID, abemaciclib 50 mg/kg QD), the “Animal survival (Kaplan–Meier) vs control” value is given as “no survival efficacy”. In data set [9] (day 40, no statistical significance), the “BLI post-treatment signals vs control” value is “signals comparable to the control”. Moreover, in [10] (5-week treatment, animals with pre-treatment spinal disease excluded), the “Overall survival (Kaplan–Meier)” value was “did not show survival benefit”. In addition, in [10] (comparison of the groups, including animals with spinal disease), the “Overall survival (Kaplan–Meier), all animals included” value is reported as “No statistical significance”. Also, the “BLI signal intensity (radiance) vs vehicle” value in [10] (day 40, adagrasib 75 mg/kg BID, abemaciclib 50 mg/kg QD, animals with pre-treatment spinal disease excluded) is “lower average BLI compared to the vehicle, without statistical significance”. Moreover, the P-gp-mediated efflux interaction entry in the data set with human p-gp was “substrates and inhibitors of human p-gp-mediated efflux”. Further, in data set [11], the “Caspase 3/7 activity” value is on record as “did not significantly provoke activation of caspase 3/7”. In addition, the “Effect on cell cycle phase fractions” value in the data set with H2122 cells [12] is “significantly increased the fraction of G1 phase and decreased the fractions of S and G2 phases”; in the data set on SW1573 cells [13] it was “significantly increased the fraction of G1 phase and decreased the fractions of S and G2 phases”.
Take `C=C(F)C(=O)N1CCN(c2nc(OC[C@@H]3CCCN3C)nc3c2CCN(c2cccc4cccc(Cl)c24)C3)C[C@@H]1CC#N` [adagrasib]: in data set [4], the “Cleaved caspase 3 (C-Cas3) positivity in tumor (IHC)” value was “trend of increased positivity”, the “p-ERK-positive cells in tumor (IHC)” value is on record as “decrease of p-ERK-positive cells” and the “p-Rb-positive cells in tumor (IHC)” value is given as “decreased p-Rb-positive cells”. Besides, in [14], the Half-life is given as 24 h. The CYP3A4 interaction entry in the data set on human CYP3A4 is “time-dependent inhibition of human CYP3A4”. Besides, the P-gp-mediated efflux interaction result in the data set with human p-gp is “substrates and inhibitors of human p-gp-mediated efflux”.
On to `CC(=O)c1c(C)c2cnc(Nc3ccc(N4CCNCC4)cn3)nc2n(C2CCCC2)c1=O` [palbociclib], for which the “Intracranial activity in patients” value in data set [15] is given as “demonstrated intracranial activity”.

As a reminder, the IC50 is the concentration needed to halve the response being measured.

The values above are taken from article PMC12046717 (Acta Neuropathologica Communications, 2025).
